Results reported in US9206129B2, “Agent for treatment of eye diseases” (Daito Chemix Corporation, priority 2010, dated 2015).
Where a name gives a salt, the structure may show the parent alone.

Legend:
DBA/2J mice = test: Intraocular pressure in DBA/2J mice (TonoLab tonometer); type: in vivo, mouse; settings: 50 mg/kg/day orally
Procedure: As a model of secondary angle-closure glaucoma, the DBA/2J mice (Anderson, M. G. et al; BMC Genetics (2001)) were employed. The mice were administered orally with 50 mg/kg/day of the compound of Synthetic Example 32 or 53 (Compound 32 or 53, respectively) daily after two months of age. The tomographs of retinae (n=22 to 32 eyes) were obtained in the 6, 7, 8, 9 and 10-month-old mice with the optical coherence tomography (OCT) (Multiline OCT, Heidelberg Engineering) (FIGS. 1 and 2: The OCT images of the retinae of the 8-month-old mice, FIG. 3: The evaluation of the optic nerve cupping in the 7 to 10-month-old mice). The mice in the control group were administered orally with the physiological saline. The eyeballs were enucleated at 10 months of age, and retinae were observed after hematoxylin-eosin (HE) staining (FIG. 4: The micrographs of retinae of the […] mice after HE staining). The thickness of the inner retinal layers and the nerve fiber layers was determined from the OCT images (FIG. 5: The thickness of the nerve fiber layers of the 7-month-old mice; FIG. 6: The thickness of the inner retinal layers of the 8-month-old mice; FIG. 7: The time course of the thickness of the inner retinal layers). The thickness of the inner retinal layer is a sum of the thickness of the nerve fiber and ganglion neuron layer and the inner plexiform layer.
Besides, the intraocular pressure was measured with TonoLab (M. E. Technica) tonometer under general anesthesia monthly from 2 months of age. The mean intraocular pressure at 4, 5, 6, 7 and 8 months of age was 13.6, 14.0, 11.3, 16.3 and 12.8 mmHg in the control group administered with the physiological saline, 13.0, 15.6, 12.0, 12.3 and 14.4 mmHg in the group administered with Compound 32, 14.6, 16.0, 12.8, 13.0 and 14.4 mmHg in the group administered with Compound 53.

rd10 mice = test: rd10 mice, model of retinitis pigmentosa: OCT, electroretinogram, HE-stained retinae; type: in vivo, mouse; settings: 33-day-old rd10 mice, 50 mg/kg/day intraperitoneally
Procedure: As a model of retinitis pigmentosa, the rd10 mice (B6.CXB1-Pde6b^rd10/J (purchased from Jackson Laboratory (Bar Harbor, Me.), Chang B. et al; Vision Res (2007)) were employed. In the mouse model, the rod photoreceptors are completely disappeared within 2 months after birth. The mice were administered intraperitoneally with 50 mg/kg/day of the compound of Synthetic Example 32 or 53 (Compound 32 or 53, respectively) daily from 7 days of age. The tomographs of the retinae were obtained in the 21, 25, 29 and 33-day-old mice with the optical coherence tomography (OCT) (FIGS. 15 and 17: The OCT images of the mice administered with Compound 32 at 25 and 29 days of age; FIGS. 19 and 21: The OCT images of the mice administered with Compound 53 at 25 and 29 days of age). The 21-, 25-, 29- and 33-day-old mice were subjected to dark adaptation and given 3.0 cd/s/m^2 of photic stimulations via a LED-type corneal-contact electrode (Mayo) by LS-W (Mayo). The electroretinogram (ERG) was recorded and analyzed with PowerLab 2/25 (AD Instruments, New South Wales, Australia) to measure the b-wave amplitudes (N=27-37 eyes) (FIGS. 16, 18, 24: The ERG of the 25-, 29- and 33-day-old mice administered with Compound 32; FIGS. 20, 22, 26: The ERG of the 25-, 29- and 33-day-old mice administered with Compound 53). The mice in the control group were administered orally with the physiological saline. […]

Mouse VCP = Mouse VCP (Mus musculus (Mouse), UniProt Q01853); test: VCP ATPase inhibitory activity; type: biochemical; settings: ATPase activity of purified VCP, 100 μM [γ-32P]ATP, 37° C., 10 minutes
Procedure: Mouse VCP cDNA (the amino acid sequence is completely identical among mouse, rat and human) is added with a DNA sequence corresponding to a histidine tag at the amino-terminal, subcloned into a baculovirus vector pVL1392 (BD Bioscience), and expressed in Sf-9 insect cells. The protein is purified with a nickel column. After the purification the concentration of the protein is adjusted to […] and the protein is stored in a solution containing 50 mM TrisCl pH 8.0, 5 mM EDTA, 10% glycerol, and 15 mM DTT at 4° C. […] The enzyme reaction is stopped with addition of 200 μL of an ice-cold solution containing 7% TCA and 1 mM K2HPO4. […] The reaction tube is centrifuged for 5 minutes at 20,000 g to separate the aqueous layer and the organic layer, 200 μL of the organic layer is taken, and the beta ray radiated from the liberated phosphate is quantified with liquid scintillation counter. By measuring the ATPase activity in the presence of the test substance at various concentrations, ATPase inhibitory activity of the test substance is measured. […]
The ATPase activity was determined as follows. […]
By measuring the ATPase activity in the presence of the test substance at various concentrations, ATPase inhibitory activity of the test substance was measured. […]

Chain of Mouse VCP (Q01853 whole entry): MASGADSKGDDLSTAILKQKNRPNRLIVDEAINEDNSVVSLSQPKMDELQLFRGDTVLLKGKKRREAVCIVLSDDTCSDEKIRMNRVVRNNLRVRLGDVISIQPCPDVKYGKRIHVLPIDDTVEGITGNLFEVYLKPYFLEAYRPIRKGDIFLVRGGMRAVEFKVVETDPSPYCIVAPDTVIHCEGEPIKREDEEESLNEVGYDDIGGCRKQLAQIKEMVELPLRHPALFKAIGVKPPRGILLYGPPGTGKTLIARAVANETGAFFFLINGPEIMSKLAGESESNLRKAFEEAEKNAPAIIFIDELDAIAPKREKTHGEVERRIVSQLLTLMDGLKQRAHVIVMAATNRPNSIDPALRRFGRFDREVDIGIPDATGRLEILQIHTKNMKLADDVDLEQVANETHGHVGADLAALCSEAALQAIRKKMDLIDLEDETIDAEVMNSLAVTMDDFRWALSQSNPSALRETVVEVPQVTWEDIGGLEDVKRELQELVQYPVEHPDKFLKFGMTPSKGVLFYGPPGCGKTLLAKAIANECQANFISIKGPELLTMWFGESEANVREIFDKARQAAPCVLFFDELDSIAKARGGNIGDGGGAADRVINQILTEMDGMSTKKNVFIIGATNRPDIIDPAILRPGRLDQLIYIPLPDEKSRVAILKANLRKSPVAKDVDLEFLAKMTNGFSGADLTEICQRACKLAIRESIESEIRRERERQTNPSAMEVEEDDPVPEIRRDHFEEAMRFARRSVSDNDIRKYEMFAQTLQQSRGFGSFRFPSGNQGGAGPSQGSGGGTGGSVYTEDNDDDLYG

| Structure (SMILES) | mean intraocular pressure (DBA/2J mice; 4 months of age) [mmHg] | mean intraocular pressure (DBA/2J mice; 5 months of age) [mmHg] | mean intraocular pressure (DBA/2J mice; 6 months of age) [mmHg] | mean intraocular pressure (DBA/2J mice; 7 months of age) [mmHg] | mean intraocular pressure (DBA/2J mice; 8 months of age) [mmHg] | layers of the photoreceptor cells in the retinal section (rd10 mice) [layers] | IC50 (Mouse VCP) [nM] |
| --- | --- | --- | --- | --- | --- | --- | --- |
| Cc1cc(F)ccc1-c1ccc(/N=N/c2cc(S(=O)(=O)[O-])c3ccccc3c2N)cn1.[Na+] [Example 32, 4-amino-3-[6-(4-fluoro-2-methylphenyl)pyridine-3-ylazo]naphthalene-1-sulfonic acid sodium salt] | 13.0 | 15.6 | 12.0 | 12.3 | 14.4 | 4 to 5 | – |
| Nc1c(/N=N/c2ccc(-c3ccccc3OCCCC(=O)O)nc2)cc(S(=O)(=O)O)c2ccccc12 [Example 43, 4-{2-[5-(1-amino-4-sulfonaphthalene-2-ylazo)pyridine-2-yl]phenoxy}butyric acid disodium salt] | – | – | – | – | – | – | 378 |
| CCCCOc1c(C=O)cc(C)cc1-c1ccc(/N=N/c2cc(S(=O)(=O)[O-])c3ccccc3c2N)cn1.[Na+] [Example 53, 4-amino-3-[6-(3-formyl-2-butoxy-5-methylphenyl)pyridine-3-ylazo]naphthalene-1-sulfonic acid sodium salt] | 14.6 | 16.0 | 12.8 | 13.0 | 14.4 | 4 to 5 | – |
